Reference: article PMC10939713 (Pharmaceutical research, 2024)
Entries after “also recorded” stand apart in the source; their conditions may differ. Counter-ions that a name gives are not always drawn.

Experiments:
[1] = FaSSIF pH 6.5
[2] = Mouse pharmacokinetic natural product-drug interaction study; type: in vivo, C57BL/6 mice; conditions: for AUC(0-t) / Cmax / AUC0-4h / AUC0-24h / Metabolite-to-parent AUC0-4h ratio / Metabolite-to-parent AUC0-24h ratio: geometric mean (CV%); for tmax: median (range)
[3] = rats; oral administration of EGCG and sunitinib; cited from earlier work
[4] = rats; EGCG group (control group 79%); cited from earlier work
[5] = FeSSIF pH 5.0
[6] = cited from earlier work
[7] = Drug solubility in simulated intestinal fluids; type: physicochemical
[8] = cited from earlier work; remark: listed apart in the source
[9] = mice, plasma, raloxifene 20 mg/kg oral with EGCG 12.96 mg/kg
[10] = mice, plasma, raloxifene 20 mg/kg oral with green tea extract 200 mg/kg
[11] = mice, raloxifene 20 mg/kg oral alone in vehicle
[12] = mice, raloxifene 20 mg/kg oral with EGCG 12.96 mg/kg
[13] = mice, raloxifene 20 mg/kg oral with green tea extract 200 mg/kg

Structure (SMILES): O=C(O[C@@H]1Cc2c(O)cc(O)cc2O[C@@H]1c1cc(O)c(O)c(O)c1)c1cc(O)c(O)c(O)c1 [EGCG, (−)-epigallocatechin gallate]
- effect on raloxifene solubility in FaSSIF (in words) [1]: decreased the solubility
- effect on Cmax of raloxifene and raloxifene-6-glucuronide (in words) ([2]; mice, compared to vehicle group, EGCG 12.96 mg/kg): no effect
- reduction of sunitinib AUC0-∞ [3]: 52%
- reduction of sunitinib Cmax [3]: 48%
- intestinal absorption of cholesterol from a test meal [4]: 63%
- effect on raloxifene solubility (concentration) in FeSSIF (in words) [5]: neither green tea extract nor EGCG significantly affected; also recorded: did not change; also recorded: Neither green tea extract nor EGCG had a significant effect

Structure (SMILES): CC(C)(C)NCC(O)COc1cccc2c1CC(O)C(O)C2 (centres unmarked) [Nadolol]
- logP [6]: 0.85
- solubility in simulated intestinal fluids (in words) ([7]; at 0.16 mg/mL): completely soluble

Structure (SMILES): O=C(c1ccc(OCCN2CCCCC2)cc1)c1c(-c2ccc(O)cc2)sc2cc(O)ccc12 [Raloxifene, Raloxifene hydrochloride]
- overt effects in the mice after administration ([2]; during the study): No overt effects
- AUC(0-t) ([2]; male, C57BL/6, mouse, plasma, po, 20 mg/kg, AUC0-4h, mice, raloxifene 20 mg/kg oral with EGCG 12.96 mg/kg): 0.322 µM·h
- AUC(0-t) ([2]; male, C57BL/6, mouse, plasma, po, 20 mg/kg, AUC0-4h, mice, raloxifene 20 mg/kg oral with green tea extract 200 mg/kg): 0.2 µM·h
- AUC(0-t) ([2]; male, C57BL/6, mouse, plasma, po, 20 mg/kg, AUC0-24h, mice, raloxifene 20 mg/kg oral with EGCG 12.96 mg/kg): 0.867 µM·h
- AUC(0-t) ([2]; male, C57BL/6, mouse, plasma, po, 20 mg/kg, AUC0-24h, mice, raloxifene 20 mg/kg oral with green tea extract 200 mg/kg): 0.669 µM·h
- Cmax ([2]; male, C57BL/6, mouse, plasma, po, 20 mg/kg, Cmax, mice, raloxifene 20 mg/kg oral with EGCG 12.96 mg/kg (0, 4, 8 h)): 168 nM
- Cmax ([2]; male, C57BL/6, mouse, plasma, po, 20 mg/kg, Cmax, mice, raloxifene 20 mg/kg oral with green tea extract 200 mg/kg (0, 4, 8 h)): 79 nM
- tmax ([2]; male, C57BL/6, mouse, plasma, po, 20 mg/kg, tmax, mice, raloxifene 20 mg/kg oral with EGCG 12.96 mg/kg): 0.5 h
- tmax ([2]; male, C57BL/6, mouse, plasma, po, 20 mg/kg, tmax, mice, raloxifene 20 mg/kg oral with green tea extract 200 mg/kg): 4 h
- oral bioavailability [8]: ~ 2%
- logP [6]: 5.78
- raloxifene solubility in FeSSIF compared to FaSSIF ([7]; FeSSIF pH 5.0 vs FaSSIF pH 6.5): 3.4 fold

Structure (SMILES): O=C(c1ccc(OCCN2CCCCC2)cc1)c1c(-c2ccc(O)cc2)sc2cc(O[C@@H]3O[C@H](C(=O)O)[C@@H](O)[C@H](O)[C@H]3O)ccc12 [Raloxifene-6-glucuronide, raloxifene-6-glucuronide]
- Cmax ([2]; mice, plasma, raloxifene 20 mg/kg oral with EGCG 12.96 mg/kg (0, 4, 8 h)): 820 nM
- AUC0-4h [2, 9]: 1200 (53) nM•h
- AUC0-24h [2, 9]: 2150 (52) nM•h
- Cmax ([2]; mice, plasma, raloxifene 20 mg/kg oral with green tea extract 200 mg/kg (0, 4, 8 h)): 288 nM
- AUC0-4h [2, 10]: 624 (31) nM•h
- AUC0-24h [2, 10]: 1560 (32) nM•h
- Metabolite-to-parent AUC0-4h ratio [2, 11]: 2.74 (30)
- Metabolite-to-parent AUC0-24h ratio [2, 11]: 2.23 (36)
- tmax [2, 11]: 0.25 (0.25 - 0.5) h
- Metabolite-to-parent AUC0-4h ratio [2, 12]: 3.74 (25)
- Metabolite-to-parent AUC0-24h ratio [2, 12]: 2.48 (38)
- tmax [2, 12]: 0.5 (0.25 - 4) h
- Metabolite-to-parent AUC0-4h ratio [2, 13]: 3.12 (34)
- Metabolite-to-parent AUC0-24h ratio [2, 13]: 2.33 (24)
- tmax [2, 13]: 0.25 (0.25 - 0.5) h
